Series [1] has as its system L02 cells. Nature of the series: Cytotoxicity evaluation (MTT assay), L02 normal cells. The conditions noted are these: Homo sapiens, L02, read-out: IC50 L02.
Experimental: Three tumour cells with high expression of EGFR^wt were used to test the antitumor activity of the compounds including, A549 (Human non-small-cell lung cancer cell line) cells, PC-3 (Human prostate cancer cell line) cells, and HepG2 (Human hepatocellular carcinomas cell line) cells. They were all purchased from the Shanghai Cell Bank of the Chinese Academy of Sciences. L02 (normal human liver cell line) cells were also used to evaluate the cytotoxicity. […] The IC50 values were calculated from the dose − response curve under Graph-Pad Prism.
Series [2] addresses T1, wild type EGFR tyrosine kinase (EGFR^wt) (Homo sapiens, UniProt P00533).
T1 construct: purchased PTM Bio; Co., Ltd
As to the kind of experiment: In vitro EGFR^wt-TK assay (ELISA). It is filed as biochemical. To be noted: mean ± SD of three replicates; for inhibition at 1 µM: read-out: EGFR^wt-TK inhibition rate. (In general: ELISA stands for enzyme-linked immunosorbent assay.)

For series [3], the system named is HepG2 cells. Nature of the series: Cytotoxicity evaluation (MTT assay), HepG2. It is filed as cell-based. The conditions noted are these: Homo sapiens, mean ± SD of three replicates. Background: Tetrazolium dyes change colour on reduction, which living cells bring about.
The subject of series [4] is A549 cells. Nature of the series: Cytotoxicity evaluation (MTT assay), A549. It is filed as cell-based. The conditions noted are these: Homo sapiens, mean ± SD of three replicates.
The subject of series [5] is PC-3 cells. Nature of the series: Cytotoxicity evaluation (MTT assay), PC-3. It is filed as cell-based. The conditions noted are these: Homo sapiens, mean ± SD of three replicates.

From PMC8920385, “Design, synthesis and biological evaluation of a series of dianilinopyrimidines as EGFR inhibitors” (Journal of Enzyme Inhibition and Medicinal Chemistry, 2022) come the findings set out here.

Usually IC50 stands for the point on the concentration scale where inhibition reaches its midpoint. As a reminder, the inhibition is the change of the read-out against control, counted positive when it falls. One may read the melting point as the temperature, or range, at which the solid turns liquid.

Molecules are shown by their SMILES.

T1 sequence (P00533 25-1210): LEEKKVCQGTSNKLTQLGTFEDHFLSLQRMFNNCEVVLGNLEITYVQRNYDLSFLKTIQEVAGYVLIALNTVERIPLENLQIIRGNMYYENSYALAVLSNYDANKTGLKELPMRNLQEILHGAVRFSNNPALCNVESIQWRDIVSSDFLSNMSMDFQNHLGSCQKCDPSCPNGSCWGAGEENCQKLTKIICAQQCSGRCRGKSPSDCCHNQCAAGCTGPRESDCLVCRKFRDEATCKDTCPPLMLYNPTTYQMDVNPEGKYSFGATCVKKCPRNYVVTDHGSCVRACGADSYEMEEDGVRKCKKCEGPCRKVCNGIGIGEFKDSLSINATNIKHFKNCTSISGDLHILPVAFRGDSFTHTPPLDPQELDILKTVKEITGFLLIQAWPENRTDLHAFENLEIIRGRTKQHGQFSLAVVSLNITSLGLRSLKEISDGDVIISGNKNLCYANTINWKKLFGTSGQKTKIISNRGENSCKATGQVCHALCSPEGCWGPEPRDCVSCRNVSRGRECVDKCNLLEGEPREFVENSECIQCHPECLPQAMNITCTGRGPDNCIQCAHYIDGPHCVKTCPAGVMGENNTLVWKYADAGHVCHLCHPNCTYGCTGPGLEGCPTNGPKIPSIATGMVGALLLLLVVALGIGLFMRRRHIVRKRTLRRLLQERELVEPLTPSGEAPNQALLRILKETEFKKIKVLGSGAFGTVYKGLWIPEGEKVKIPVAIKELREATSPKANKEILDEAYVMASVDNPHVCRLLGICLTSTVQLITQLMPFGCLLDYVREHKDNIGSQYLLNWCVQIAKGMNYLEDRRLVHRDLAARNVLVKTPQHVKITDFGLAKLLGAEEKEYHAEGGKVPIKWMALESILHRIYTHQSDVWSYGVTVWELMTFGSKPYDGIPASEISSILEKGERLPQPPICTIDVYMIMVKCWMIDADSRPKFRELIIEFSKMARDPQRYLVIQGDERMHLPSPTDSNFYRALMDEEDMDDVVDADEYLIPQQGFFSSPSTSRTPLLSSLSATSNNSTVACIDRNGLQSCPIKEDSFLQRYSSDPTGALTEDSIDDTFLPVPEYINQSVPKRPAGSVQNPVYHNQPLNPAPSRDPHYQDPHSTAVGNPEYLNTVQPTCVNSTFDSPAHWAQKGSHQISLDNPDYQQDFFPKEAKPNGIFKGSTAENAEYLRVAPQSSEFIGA

On to `CNC(=O)c1ccsc1Nc1nc(Nc2ccc(NC(=O)c3ccc(OC)cc3)cc2)ncc1C(F)(F)F` [4a, 2-{2-[4-(4-Methoxy-benzoylamino)-phenylamino]-5-trifluoromethyl-pyrimidin-4-ylamino}-thiophene-3-carboxylic acid methylamide], for which the melting point is greater than 250 °C. In series [1], the IC50 is greater than 40 µM. Also, the inhibition at 1 µM in series [2] (1 μM) amounted to 31.6 ± 3.27%. Moreover, the IC50 in series [3] stood at 11.5 ± 0.77 µM. Also, in series [4], the IC50 came to 9.32 ± 0.68 µM. For the same molecule, the IC50 in series [5] was found to be 12.3 ± 0.89 µM.
In turn, `CNC(=O)c1ccsc1Nc1nc(Nc2ccc(NC(=O)c3ccccc3F)cc2)ncc1C(F)(F)F` [4b, 2-{2-[4-(2-Fluoro-benzoylamino)-phenylamino]-5-trifluoromethyl-pyrimidin-4-ylamino}-thiophene-3-carboxylic acid methylamide] showed a melting point of 224.8 to 226.3 °C. Further, the IC50 in series [1] is greater than 40 µM. In series [2] (1 μM), the “EGFR^wt-TK inhibition rate” value worked out at 52.08 ± 1.93% and the inhibition at 1 µM is greater than 50%. Also, the IC50 in series [2] turned out to be 0.89 ± 0.12 µM. Also, in series [3], 7.62 ± 0.46 µM corresponded to half-maximal inhibition (IC50). This molecule also gave a 50% inhibitory concentration (IC50) in series [4] of 4.33 ± 0.59 µM. In addition, the IC50 in series [5] was 7.81 ± 0.53 µM.
`CNC(=O)c1ccsc1Nc1nc(Nc2ccc(NC(=O)c3ccc(F)cc3)cc2)ncc1C(F)(F)F` [4d, 2-{2-[4-(4-Fluoro-benzoylamino)-phenylamino]-5-trifluoromethyl-pyrimidin-4-ylamino}-thiophene-3-carboxylic acid methylamide] gave a melting point of 233.5 to 235.3 °C. The IC50 in series [1] is greater than 40 µM. In series [2] (1 μM), the inhibition at 1 µM is 7.59 ± 0.25%. The molecule also returned an IC50 in series [3] greater than 20 µM. Further, the IC50 in series [4] was greater than 20 µM. Besides, in series [5], the IC50 was greater than 20 µM.
The molecule `CNC(=O)c1ccsc1Nc1nc(Nc2ccc(NC(=O)c3ccc(F)c(F)c3)cc2)ncc1C(F)(F)F` [4e, 2-{2-[4-(3,4-Difluoro-benzoylamino)-phenylamino]-5-trifluoromethyl-pyrimidin-4-ylamino}-thiophene-3-carboxylic acid methylamide] had a melting point of 244.3 to 245.9 °C. The IC50 in series [1] is greater than 40 µM. Besides, the inhibition at 1 µM in series [2] (1 μM) was found to be 27.9 ± 1.34%. This molecule displayed an IC50 in series [3] greater than 20 µM. For the same molecule, the IC50 in series [4] was greater than 20 µM. This molecule also displayed an IC50 in series [5] greater than 20 µM.
Consider `CNC(=O)c1ccsc1Nc1nc(Nc2ccc(NC(=O)c3cccc(C(F)(F)F)c3)cc2)ncc1C(F)(F)F` [4f, 2-{5-Trifluoromethyl-2-[4-(3-trifluoromethyl-benzoylamino)-phenylamino]-pyrimidin-4-ylamino}-thiophene-3-carboxylic acid methylamide], for which the melting point was greater than 250 °C. Moreover, the IC50 in series [1] is greater than 40 µM. In addition, in series [2] (1 μM), the inhibition at 1 µM was determined as 30.8 ± 1.09%. The molecule also registered an IC50 in series [3] of 8.36 ± 0.49 µM. Moreover, the IC50 in series [4] amounted to 6.14 ± 0.78 µM. Further, the IC50 in series [5] was determined as 8.51 ± 0.64 µM.
Take `CCCNc1c(Nc2ccc(Nc3ncc(C(F)(F)F)c(Nc4sccc4C(=O)NC)n3)cc2)c(=O)c1=O` [6a, 2-{2-[4-(3,4-Dioxo-2-propylamino-cyclobut-1-enylamino)-phenylamino]-5-trifluoromethyl-pyrimidin-4-ylamino}-thiophene-3-carboxylic acid methylamide]: the melting point is greater than 250 °C. Moreover, the IC50 in series [1] is greater than 40 µM. Moreover, the inhibition at 1 µM in series [2] (1 μM) worked out at 15.3 ± 0.48%. In series [3], this molecule came in with an IC50 greater than 20 µM. In addition, the IC50 in series [4] is greater than 20 µM. The molecule also displayed an IC50 in series [5] greater than 20 µM.
Consider `CCCCCCNc1c(Nc2ccc(Nc3ncc(C(F)(F)F)c(Nc4sccc4C(=O)NC)n3)cc2)c(=O)c1=O` [6b, 2-{2-[4-(2-Hexylamino-3,4-dioxo-cyclobut-1-enylamino)-phenylamino]-5-trifluoromethyl-pyrimidin-4-ylamino}-thiophene-3-carboxylic acid methylamide], for which the melting point is greater than 250 °C. For the same molecule, the IC50 in series [1] was greater than 40 µM. Moreover, the inhibition at 1 µM in series [2] (1 μM) stood at 17.4 ± 0.32%. Besides, the IC50 in series [3] is greater than 20 µM. This molecule gave an IC50 in series [4] greater than 20 µM. In series [5], this molecule had a half-inhibitory concentration (IC50) greater than 20 µM.
